Legend:
[1] = system: HSV-1 Strain F; assay: Viral qPCR assay, HSV1 in Vero cells; assay type: cell-based; settings: Human alphaherpesvirus 1, ~72 hrs, viral genome copies by qPCR, read-out: HSV1 VERO Cell (EC50)
Method: (§1) MRC5 cells, Vero cells, and MeWo cells were obtained from ATCC and were maintained at 37° C./5% CO2/90% relative humidity in Minimal Essential Medium with 10% fetal bovine serum, […] L-glutamine, 100 units/ml penicillin and 100 ug/ml streptomycin. Assay plates were prepared by dispensing compounds dissolved in DMSO into wells of 384 well collagen-coated plates using an ECHO acoustic dispenser. Each compound was tested in a 10-point, serial 3-fold dilution. Controls included uninfected cells and infected cells treated only with DMSO. Assays were initiated by mixing selected cells, in suspension, with virus, and dispensing 50 μl/well infected cells to pre-plated compounds. Plates were incubated at 37° C./5% CO2/90% relative humidity for ˜72 hrs to permit genomic replication, and infected cells were lysed by the addition of an equal volume of lysis buffer (10 mM Tris-HCl, pH8, 50 mM KCl, 2 mM MgCl2, 0.45% NP-40, 0.45% Tween-20, and 100 μg/ml proteinase K). […] Levels of a viral gene and of the cellular control, PPIA (Thermo Fisher Assay ID=Hs04194521_s1), were measured in separate 10 μL qPCR assays using TaqMang Gene Expression Master Mix (Applied Biosystems), and an 7900HT Fast Real-Time PCR System with 384-Well Block Module. 7-point, serial 10-fold dilutions of a plasmid standard were run on each plate to generate a standard curve, and genome copies numbers were calculated by plotting experimental Ct onto linear regression of the standard curve. […] Calculated % effects were fit using a 4-parameter algorithm, and EC50 was reported.
(§2) MRC5 cells, Vero cells, and MeWo cells were obtained from ATCC and were maintained at 37° C./5% CO2/90% relative humidity in Minimal Essential Medium with 10% fetal bovine serum, […] L-glutamine, 100 units/ml penicillin and 100 ug/ml streptomycin. […] Levels of a viral gene were measured in 10 μL qPCR assays using TaqMang Gene Expression Master Mix (Applied Biosystems), and an 7900HT Fast Real-Time PCR System with 384-Well Block Module. […]

[2] = system: VZV; assay: Viral qPCR assay, VZV in MeWo cells; assay type: cell-based, varicella zoster virus; settings: Human alphaherpesvirus 3, ~72 hrs, viral genome copies by qPCR, read-out: VZV MEWO Cell (IC50)
Method: as §1, §2

[3] = system: HSV2; assay: Viral qPCR assay, HSV2 in Vero cells; assay type: cell-based; settings: Human alphaherpesvirus 2, ~72 hrs, viral genome copies by qPCR, read-out: HSV2 VERO Cell (EC50)
Method: as §1, §2

[4] = system: HCMV Strain AD169; assay: Viral qPCR assay, CMV in MRC5 cells; assay type: cell-based, Human cytomegalovirus; settings: Human betaherpesvirus 5, AD169, ~72 hrs, viral genome copies by qPCR, read-out: CMV MRC5 Cell (EC50)
Method: as §1, §2

[5] = target: T1, varicella zoster virus (VZV) DNA polymerase (Varicella-zoster virus, UniProt P09252); assay: VZV polymerase assay; assay type: biochemical; settings: polymerase 0.4 nM, AlphaLISA detection
T1 construct: made in house; host or cells: SF21 insect cells (baculovirus vector)
Method: (§3) Human cytomegalovirus (HCMV) and varicella zoster virus (VZV) DNA polymerases were expressed via baculovirus vector in SF21 cells and purified. Heterodimeric nucleic acid substrate used in the herpesvirus polymerase reactions was generated by annealing a 59-mer template to a 17-mer digoxigenin-labeled primer. Polymerase (HCMV final concentration of 0.2 nM; VZV final concentration of 0.4 nM) was combined with an inhibitor compound or DMSO in assay buffer (10 mM HEPES, pH 7.5, 25 mM KCl, 25 mM NaCl, 5 mM MgCl2, 5% glycerol, 0.67 mg/ml bovine serum albuminutes (albuminate?), and 1 mM tris(2-carboxyethyl)phosphine), and this mixture was pre-incubated for 30 minutes at room temperature in 384-well microtiter plates. The polymerization reaction was initiated by the addition of template/primer substrate (final concentration: 1.6 nM), and dNTPs (final concentration: 24 nM dCTP, 24 nMdGTP, 16 nM dATP, 16 nM dTTP, and 0.8 nM biotin-dUTP). After 60 minutes incubation at 37° C., reactions were terminated with quench buffer (25 mM HEPES pH 7.5, 100 mM NaCl, 0.25% Tween-20, 12 mM EDTA, and 1 mg/ml bovine serum albumin). Incorporation of biotinylated UTP was detected with 2.5-5 ug/ml anti-DIG AlphaLISA acceptor beads and 5-10 ug/ml streptavidin AlphaLISA donor beads (Perkin Elmer). Compound effects were normalized to the window defined by the controls (DMSO only and pre-quenched wells), and were fit using a 4-parameter algorithm to report an IC50.

[6] = target: T2, Human cytomegalovirus (HCMV) DNA polymerase (Human cytomegalovirus, UniProt P08546); assay: HCMV polymerase assay; assay type: biochemical; settings: polymerase 0.2 nM, AlphaLISA detection; read-out: CMV (IC50)
T2 construct: made in house; host or cells: SF21 insect cells (baculovirus vector)
Method: as §3

T1 sequence (P09252 whole entry): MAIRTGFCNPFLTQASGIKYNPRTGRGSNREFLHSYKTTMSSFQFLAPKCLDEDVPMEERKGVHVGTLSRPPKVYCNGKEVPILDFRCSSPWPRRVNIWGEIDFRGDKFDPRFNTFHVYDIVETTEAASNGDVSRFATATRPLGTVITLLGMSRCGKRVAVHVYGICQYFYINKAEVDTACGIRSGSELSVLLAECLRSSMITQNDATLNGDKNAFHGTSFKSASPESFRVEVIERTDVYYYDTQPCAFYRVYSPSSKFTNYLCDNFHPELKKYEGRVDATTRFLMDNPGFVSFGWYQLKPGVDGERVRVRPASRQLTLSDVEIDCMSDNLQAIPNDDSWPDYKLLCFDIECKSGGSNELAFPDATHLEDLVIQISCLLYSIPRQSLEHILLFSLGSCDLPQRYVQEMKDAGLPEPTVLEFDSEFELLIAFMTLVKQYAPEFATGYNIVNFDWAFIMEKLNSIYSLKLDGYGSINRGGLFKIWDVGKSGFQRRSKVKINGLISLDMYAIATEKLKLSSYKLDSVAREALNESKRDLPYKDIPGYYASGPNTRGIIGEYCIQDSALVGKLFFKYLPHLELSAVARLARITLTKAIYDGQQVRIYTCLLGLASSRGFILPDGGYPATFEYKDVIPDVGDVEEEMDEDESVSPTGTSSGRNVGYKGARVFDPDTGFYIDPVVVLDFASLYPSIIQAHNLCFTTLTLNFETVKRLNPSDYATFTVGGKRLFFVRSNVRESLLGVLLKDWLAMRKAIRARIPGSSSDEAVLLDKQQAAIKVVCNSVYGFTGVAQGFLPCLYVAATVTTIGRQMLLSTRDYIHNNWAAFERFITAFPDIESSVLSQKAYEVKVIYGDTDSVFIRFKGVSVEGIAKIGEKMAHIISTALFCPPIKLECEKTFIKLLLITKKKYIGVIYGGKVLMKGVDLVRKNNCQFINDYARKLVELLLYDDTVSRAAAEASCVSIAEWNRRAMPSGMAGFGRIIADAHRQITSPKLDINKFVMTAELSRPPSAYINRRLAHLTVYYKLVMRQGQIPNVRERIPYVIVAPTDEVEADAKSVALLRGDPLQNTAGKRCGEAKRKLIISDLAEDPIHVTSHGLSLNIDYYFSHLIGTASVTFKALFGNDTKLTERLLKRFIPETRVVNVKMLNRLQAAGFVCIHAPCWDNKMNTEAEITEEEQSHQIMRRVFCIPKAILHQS
T2 sequence (P08546 whole entry): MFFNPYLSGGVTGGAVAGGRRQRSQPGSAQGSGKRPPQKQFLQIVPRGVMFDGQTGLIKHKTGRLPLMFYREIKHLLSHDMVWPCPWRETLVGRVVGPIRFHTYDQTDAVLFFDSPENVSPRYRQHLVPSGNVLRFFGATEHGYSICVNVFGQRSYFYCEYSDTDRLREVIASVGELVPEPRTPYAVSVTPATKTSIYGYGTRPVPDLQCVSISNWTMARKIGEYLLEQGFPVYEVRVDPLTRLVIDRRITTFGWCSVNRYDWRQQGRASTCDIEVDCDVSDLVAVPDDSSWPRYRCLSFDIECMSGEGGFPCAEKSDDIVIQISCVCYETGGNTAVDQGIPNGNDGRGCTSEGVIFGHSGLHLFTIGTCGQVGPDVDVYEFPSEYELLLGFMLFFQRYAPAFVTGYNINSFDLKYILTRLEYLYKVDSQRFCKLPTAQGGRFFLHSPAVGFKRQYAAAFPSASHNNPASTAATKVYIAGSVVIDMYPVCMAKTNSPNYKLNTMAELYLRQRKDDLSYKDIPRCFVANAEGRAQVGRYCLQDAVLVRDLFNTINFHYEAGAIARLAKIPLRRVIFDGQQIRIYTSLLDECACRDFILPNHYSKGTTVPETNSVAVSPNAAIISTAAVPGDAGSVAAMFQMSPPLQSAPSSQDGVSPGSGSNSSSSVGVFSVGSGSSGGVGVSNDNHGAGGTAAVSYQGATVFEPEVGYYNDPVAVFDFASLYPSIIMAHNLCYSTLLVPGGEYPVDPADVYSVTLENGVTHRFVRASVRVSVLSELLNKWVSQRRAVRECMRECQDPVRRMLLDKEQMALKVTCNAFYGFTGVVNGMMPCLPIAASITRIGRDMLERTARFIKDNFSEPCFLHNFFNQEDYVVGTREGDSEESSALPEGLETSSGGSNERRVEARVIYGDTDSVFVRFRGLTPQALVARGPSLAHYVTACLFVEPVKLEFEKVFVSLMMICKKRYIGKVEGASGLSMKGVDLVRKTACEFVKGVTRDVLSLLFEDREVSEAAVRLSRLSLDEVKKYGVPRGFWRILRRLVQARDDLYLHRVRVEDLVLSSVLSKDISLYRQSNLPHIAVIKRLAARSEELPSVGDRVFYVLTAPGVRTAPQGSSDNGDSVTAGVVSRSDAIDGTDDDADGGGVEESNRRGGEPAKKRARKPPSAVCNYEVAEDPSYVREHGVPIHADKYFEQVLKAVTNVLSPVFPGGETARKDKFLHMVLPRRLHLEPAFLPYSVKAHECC

| EC50 [1] [µM] | IC50 [2] [µM] | EC50 [3] [µM] | IC50 [5] [µM] | IC50 [6] [µM] | Structure (SMILES) | EC50 [4] [µM] |
| --- | --- | --- | --- | --- | --- | --- |
| 3.29 | 1.96 | 7.97 | 0.26 | 0.802 | Cn1nc(C(=O)NCc2ccc(Cl)cc2)c2c1CCN(C[C@H]1COC(=O)N1)CC2 [Compound 1] | 3.72 |
| 4.58 | 1.44 | 7.82 | 0.373 | 0.805 | Cc1nnn(C)c1CN1CCc2c(C(=O)NCc3ccc(Cl)cc3)nn(C)c2CC1 [Compound 3] | 12.4 |
| 3.27 | 2.99 | 5.68 | 0.251 | 0.762 | Cn1nc(C(=O)NCc2ccc(Cl)cc2)c2c1CCN(C[C@H]1CCC(=O)N1)CC2 [Compound 2] | 8.68 |

— US12552802B2, “Fused [7,5] bicyclic pyrazole derivatives and methods of use thereof for the treatment of herpesviruses” (Merck Sharp & Dohme LLC, priority 2020, dated 2026)
